Experimental data taken from ChEMBL document CHEMBL1201862, “PubChem BioAssay data set” (2004).
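Following 48 hours of exposure in 96-well plates, responses at five concentrations were used to interpolate endpoints linearly. GI50 marks 50% less growth.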 Active and inactive are the calls of the source. Cut-off read from the data, not from the text of the source: active = GI50 up to about 1.1 µM and inactive = higher.

Columns and labels:
Test in all cases: DTP human tumour cell line panel, 48 h
ACHN = system: ACHN
BT-549 = system: BT-549
EKVX = system: EKVX
HCC 2998 = system: HCC 2998
HL-60 = system: HL-60
HOP-62 = system: HOP-62
LOX IMVI = system: LOX IMVI
MCF7 = system: MCF7
MDA-MB-231 = system: MDA-MB-231
MDA-MB-435 = system: MDA-MB-435
MDA-N = system: MDA-N
NCI-H226 = system: NCI-H226
NCI-H522 = system: NCI-H522
OVCAR-4 = system: OVCAR-4
RXF 393 = system: RXF 393
SF-295 = system: SF-295
SF-539 = system: SF-539
SNB-19 = system: SNB-19
SNB-75 = system: SNB-75
UACC-62 = system: UACC-62

Row | Structure (SMILES) | GI50 (ACHN) | GI50 (BT-549) | GI50 (EKVX) | GI50 (HCC 2998) | GI50 (HL-60) | GI50 (HOP-62) | GI50 (LOX IMVI) | GI50 (MCF7) | GI50 (MDA-MB-231) | GI50 (MDA-MB-435) | GI50 (MDA-N) | GI50 (NCI-H226) | GI50 (NCI-H522) | GI50 (OVCAR-4) | GI50 (RXF 393) | GI50 (SF-295) | GI50 (SF-539) | GI50 (SNB-19) | GI50 (SNB-75) | GI50 (UACC-62)
1 | CC(=O)Oc1c2c(c(CC=C(C)C)c3c1C(=O)C1=C[C@@H]4CC5C(C)(C)OC(C/C=C(/C)C(=O)O)(C4=O)[C@@]15O3)OC(C)(CCC=C(C)C)C=C2 (stereo partly drawn) | 0.102 µM (active) | 0.205 µM (active) | 0.249 µM (active) | 0.61 µM (active) | 0.0408 µM (active) | 0.832 µM (active) | 0.104 µM (active) | 0.173 µM (active) | 0.227 µM (active) | 0.161 µM (active) | 0.16 µM (active) | 0.313 µM (active) | 0.0796 µM (active) | 0.177 µM (active) | 0.144 µM (active) | 0.454 µM (active) | 0.0986 µM (active) | 0.269 µM (active) | 0.323 µM (active) | 0.282 µM (active)
2 | C/C(CC(O)(C(F)(F)F)C(F)(F)F)=N\N | > 10 µM (inactive) | > 10 µM (inactive) | > 10 µM (inactive) | > 10 µM (inactive) | > 10 µM (inactive) | > 10 µM (inactive) | > 10 µM (inactive) | > 10 µM (inactive) | > 10 µM (inactive) | > 10 µM (inactive) | > 10 µM (inactive) | > 10 µM (inactive) | > 10 µM (inactive) | > 10 µM (inactive) | > 10 µM (inactive) | > 10 µM (inactive) | > 10 µM (inactive) | > 10 µM (inactive) | > 10 µM (inactive) | > 10 µM (inactive)
3 | C=C(C)[C@@H]1CCc2c(c(C)cc(O)c(=O)c2O)C1 | 1.18 µM (inactive) | 8.95 µM (inactive) | 2.49 µM (inactive) | 1.76 µM (inactive) | 0.462 µM (active) | – | 0.695 µM (active) | 1.48 µM (inactive) | > 52.1 µM (inactive) | 3.13 µM (inactive) | 3.08 µM (inactive) | 2.72 µM (inactive) | 0.247 µM (active) | 0.146 µM (active) | 2.6 µM (inactive) | 2 µM (inactive) | 0.6 µM (active) | 1.13 µM (inactive) | 3.68 µM (inactive) | 1.6 µM (inactive)
4 | S=C1CSc2c(cnc3ccccc23)N1 | > 100 µM (inactive) | 71.4 µM (inactive) | 76.4 µM (inactive) | – | > 100 µM (inactive) | > 100 µM (inactive) | > 100 µM (inactive) | > 100 µM (inactive) | > 100 µM (inactive) | > 100 µM (inactive) | > 100 µM (inactive) | 53.7 µM (inactive) | > 100 µM (inactive) | > 100 µM (inactive) | 20 µM (inactive) | 52.2 µM (inactive) | – | > 100 µM (inactive) | 56.8 µM (inactive) | > 100 µM (inactive)
5 | COc1ccc2nc3cc(Cl)ccc3c(NCCCN(C)CCCNc3ccc4ncn5c6ccccc6c(=O)c3c45)c2c1 | 0.0102 µM (active) | 0.0822 µM (active) | 0.637 µM (active) | 0.0103 µM (active) | 0.0226 µM (active) | 0.817 µM (active) | 0.116 µM (active) | 0.0525 µM (active) | 0.108 µM (active) | 0.183 µM (active) | 0.0817 µM (active) | 0.395 µM (active) | 0.0264 µM (active) | 0.0897 µM (active) | 0.0536 µM (active) | 0.169 µM (active) | 0.0861 µM (active) | 0.269 µM (active) | 2.38 µM (inactive) | 1.92 µM (inactive)
6 | COC(=O)CC(c1ccccc1)C(C#N)(OP1(=O)OC(c2ccccc2)C(C)N1C)c1ccccc1 (stereo not drawn) | 39.4 µM (inactive) | 64.4 µM (inactive) | 77.1 µM (inactive) | > 100 µM (inactive) | 26.2 µM (inactive) | > 100 µM (inactive) | 59.3 µM (inactive) | 37.2 µM (inactive) | > 100 µM (inactive) | 43.4 µM (inactive) | 54.5 µM (inactive) | – | 35 µM (inactive) | 33.3 µM (inactive) | > 100 µM (inactive) | 71.6 µM (inactive) | – | 73.5 µM (inactive) | > 100 µM (inactive) | 47.5 µM (inactive)
7 | COC(=O)C1CN=CN1CCc1ccccc1 (stereo not drawn) | > 100 µM (inactive) | > 100 µM (inactive) | > 100 µM (inactive) | > 100 µM (inactive) | > 100 µM (inactive) | – | > 100 µM (inactive) | > 100 µM (inactive) | > 100 µM (inactive) | > 100 µM (inactive) | > 100 µM (inactive) | > 100 µM (inactive) | > 100 µM (inactive) | > 100 µM (inactive) | > 100 µM (inactive) | > 100 µM (inactive) | > 100 µM (inactive) | > 100 µM (inactive) | 15.5 µM (inactive) | > 100 µM (inactive)
8 | CCOc1cc(NC(C)=O)ccc1C(=O)N/N=C/c1ccco1 | 35.6 µM (inactive) | > 100 µM (inactive) | > 100 µM (inactive) | > 100 µM (inactive) | 27.9 µM (inactive) | > 100 µM (inactive) | 38.4 µM (inactive) | 22.3 µM (inactive) | > 100 µM (inactive) | > 100 µM (inactive) | > 100 µM (inactive) | > 100 µM (inactive) | > 100 µM (inactive) | > 100 µM (inactive) | > 100 µM (inactive) | > 100 µM (inactive) | 89.7 µM (inactive) | – | > 100 µM (inactive) | 77.3 µM (inactive)
